The structures appear in SMILES notation. Starred links: 1 amine or outer side, 2 acyl side, 3 side chain; linkers in the order of their positions; H or OH if unused. Positions of bridges follow the written chain, without caps; N, C: chain ends. Non-standard residues stand in square brackets, D forms with d. Residues, ends and D or L forms follow the SMILES beside them. Phe(3-Me) = Cc1cccc(C[C@H](N)C(=O)O)c1; γGlu = O=C(O)[C@H](CCC(=O)[*:2])N[*:1]; NMeL = CN[C@@H](CC(C)C)C(=O)O; Ahp(2) = CCCCC[C@H](N)C(=O)O; NMeNle = CCCC[C@H](NC)C(=O)O; Tle = CC(C)(C)[C@H](N)C(=O)O; NHexGly = CCCCCCNCC(=O)O; Nle = CCCC[C@H](N)C(=O)O; Aun = NCCCCCCCCCCC(=O)O; AEEA = NCCOCCOCC(=O)O

This experiment has as its target T1, mouse VISTA (mVISTA) (Mus musculus, UniProt Q9D659).
T1 construct: expressed in transfected cells; host or cells: Human embryonic kidney 293T cells
T1 sequence (Q9D659 33-308): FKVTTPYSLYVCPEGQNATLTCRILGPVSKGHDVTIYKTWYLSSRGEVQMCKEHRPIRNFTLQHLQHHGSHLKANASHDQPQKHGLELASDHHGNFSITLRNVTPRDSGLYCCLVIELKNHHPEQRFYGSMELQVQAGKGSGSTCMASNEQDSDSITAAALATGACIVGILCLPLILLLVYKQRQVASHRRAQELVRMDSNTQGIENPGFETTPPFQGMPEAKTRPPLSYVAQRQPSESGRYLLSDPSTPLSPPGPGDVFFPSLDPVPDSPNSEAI
Nature of the experiment: Cell-Based Binding High-Content Assay For mVISTA (HC CBA mVISTA). As to conditions: read-out: HC CBA mVISTA IC50. The essentials: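 This high-content binding assay uses HEK293T cells expressing murine VISTA, measuring displacement of 2 nM biotinylated peptide by fluorescent streptavidin imaging. IC50 values come from four-parameter logistic fitting.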
Consider `CCCCCCN1CC(=O)N[C@@H](Cc2ccc(O)cc2)C(=O)N[C@@H](CCCC)C(=O)N[C@@H](CC(N)=O)C(=O)N[C@@H](CCCNC(=N)N)C(=O)N(C)[C@@H](CCCC)C(=O)N[C@@H](CCCCC)C(=O)N2CCC[C@H]2C(=O)N[C@@H](C(C)(C)C)C(=O)N[C@@H](CO)C(=O)N[C@H](C(=O)NCCOCCOCC(=O)N[C@@H](CCC(=O)NCCOCCOCC(=O)NCCCCCCCCCCC(=O)O)C(=O)O)CSCC(=O)N[C@@H](Cc2cccc(C)c2)C(=O)N[C@@H](Cc2c[nH]c3ccccc23)C(=O)N[C@@H](CC(=O)O)C1=O` [compound 2228] ({CH2CO}-[Phe(3-Me)]WD[NHexGly]Y[Nle]NR[NMeNle][Ahp(2)]P[Tle]SC[AEEA][γGlu][AEEA][Aun]-OH; thioether N-14), for which the half-maximal inhibitory concentration (IC50) – broadly, the point on the concentration scale where inhibition reaches its midpoint – was determined as 38.8 nM.

Take `CCCCCCN1CC(=O)N[C@@H](Cc2ccc(O)cc2)C(=O)N[C@@H](CCCC)C(=O)N[C@@H](CC(N)=O)C(=O)N[C@@H](CCCNC(=N)N)C(=O)N(C)[C@@H](CC(C)C)C(=O)N[C@@H](CCCCC)C(=O)N2CCC[C@H]2C(=O)N[C@@H](C(C)(C)C)C(=O)N[C@@H](CO)C(=O)N[C@H](C(=O)NCCOCCOCC(=O)N[C@@H](CCC(=O)NCCOCCOCC(=O)NCCCCCCCCCCC(=O)O)C(=O)O)CSCC(=O)N[C@@H](Cc2ccccc2)C(=O)N[C@@H](Cc2c[nH]c3ccccc23)C(=O)N[C@@H](CC(=O)O)C1=O` [compound 2229] ({CH2CO}-FWD[NHexGly]Y[Nle]NR[NMeL][Ahp(2)]P[Tle]SC[AEEA][γGlu][AEEA][Aun]-OH; thioether N-14): the 50% inhibitory concentration (IC50) is 33.1 nM. Consider `CCCCCCN1CC(=O)N[C@@H](Cc2ccc(O)cc2)C(=O)N[C@@H](CC(C)C)C(=O)N[C@@H](CC(N)=O)C(=O)N[C@@H](CCCNC(=N)N)C(=O)N[C@@H](CC(C)C)C(=O)N[C@@H](CCCCC)C(=O)N2CCC[C@H]2C(=O)N[C@@H](C(C)(C)C)C(=O)N[C@@H](CO)C(=O)N[C@H](C(=O)NCCOCCOCC(=O)N[C@@H](CCC(=O)NCCOCCOCC(=O)NCCCCCCCCCCC(=O)O)C(=O)O)CSCC(=O)N[C@@H](Cc2ccccc2)C(=O)N[C@@H](Cc2c[nH]c3ccccc23)C(=O)N[C@@H](CC(=O)O)C1=O` [compound 2230] ({CH2CO}-FWD[NHexGly]YLNRL[Ahp(2)]P[Tle]SC[AEEA][γGlu][AEEA][Aun]-OH; thioether N-14), for which the IC50 turned out to be 28.4 nM.

For `CCCCCCN1CC(=O)N[C@@H](Cc2ccc(O)cc2)C(=O)N[C@@H](CC(C)C)C(=O)N[C@@H](CC(N)=O)C(=O)N[C@@H](CCCNC(=N)N)C(=O)N[C@@H](CC(C)C)C(=O)N[C@@H](CCCCC)C(=O)N2CCC[C@H]2C(=O)N[C@@H](C(C)(C)C)C(=O)N[C@@H](C(C)C)C(=O)N[C@H](C(=O)NCCOCCOCC(=O)N[C@@H](CCC(=O)NCCOCCOCC(=O)NCCCCCCCCCCC(=O)O)C(=O)O)CSCC(=O)N[C@@H](Cc2ccccc2)C(=O)N[C@@H](Cc2c[nH]c3ccccc23)C(=O)N[C@@H](CC(=O)O)C1=O` [compound 2231] ({CH2CO}-FWD[NHexGly]YLNRL[Ahp(2)]P[Tle]VC[AEEA][γGlu][AEEA][Aun]-OH; thioether N-14), the IC50 came out at 42.5 nM.

Take `CCCCCCN1CC(=O)N[C@@H](Cc2ccc(O)cc2)C(=O)N[C@@H](CC(C)C)C(=O)N[C@@H](CC(N)=O)C(=O)N[C@@H](CCCNC(=N)N)C(=O)N[C@@H](CC(C)C)C(=O)N[C@@H](CCCCC)C(=O)N2CCC[C@H]2C(=O)N[C@@H](C(C)(C)C)C(=O)N[C@@H](CC(=O)O)C(=O)N[C@H](C(=O)NCCOCCOCC(=O)N[C@@H](CCC(=O)NCCOCCOCC(=O)NCCCCCCCCCCC(=O)O)C(=O)O)CSCC(=O)N[C@@H](Cc2ccccc2)C(=O)N[C@@H](Cc2ccc(O)cc2)C(=O)N[C@@H](CC(=O)O)C1=O` [compound 2232] ({CH2CO}-FYD[NHexGly]YLNRL[Ahp(2)]P[Tle]DC[AEEA][γGlu][AEEA][Aun]-OH; thioether N-14): the IC50 amounted to 13 nM. The figure for `CCCCCCN1CC(=O)N[C@@H](Cc2ccc(O)cc2)C(=O)N[C@@H](CCCC)C(=O)N[C@@H](CC(N)=O)C(=O)N[C@@H](CCCNC(=N)N)C(=O)N[C@@H](CC(C)C)C(=O)N[C@@H](CCCCC)C(=O)N2CCC[C@H]2C(=O)N[C@@H](C(C)(C)C)C(=O)N[C@@H](CC(=O)O)C(=O)N[C@H](C(=O)NCCOCCOCC(=O)N[C@@H](CCC(=O)NCCOCCOCC(=O)NCCCCCCCCCCC(=O)O)C(=O)O)CSCC(=O)N[C@@H](Cc2ccccc2)C(=O)N[C@@H](Cc2ccc(O)cc2)C(=O)N[C@@H](CC(=O)O)C1=O` [compound 2233] ({CH2CO}-FYD[NHexGly]Y[Nle]NRL[Ahp(2)]P[Tle]DC[AEEA][γGlu][AEEA][Aun]-OH; thioether N-14) is 29.1 nM. Turning to `CCCCCCN1CC(=O)N[C@@H](Cc2ccc(O)cc2)C(=O)N[C@@H](CCCC)C(=O)N[C@@H](CC(N)=O)C(=O)N[C@@H](CCCNC(=N)N)C(=O)N[C@@H](CC(C)C)C(=O)N[C@@H](CCCCC)C(=O)N2CCC[C@H]2C(=O)N[C@@H](C(C)(C)C)C(=O)N[C@@H](C(C)C)C(=O)N[C@H](C(=O)NCCOCCOCC(=O)N[C@@H](CCC(=O)NCCOCCOCC(=O)NCCCCCCCCCCC(=O)O)C(=O)O)CSCC(=O)N[C@@H](Cc2ccccc2)C(=O)N[C@@H](Cc2ccc(O)cc2)C(=O)N[C@@H](CC(=O)O)C1=O` [compound 2234] ({CH2CO}-FYD[NHexGly]Y[Nle]NRL[Ahp(2)]P[Tle]VC[AEEA][γGlu][AEEA][Aun]-OH; thioether N-14), the IC50 was determined as 32.2 nM. Turning to `CCCCCCN1CC(=O)N[C@@H](Cc2ccc(O)cc2)C(=O)N[C@@H](CC(C)C)C(=O)N[C@@H](CC(N)=O)C(=O)N[C@@H](CCCNC(=N)N)C(=O)N[C@@H](CC(C)C)C(=O)N[C@@H](CCCCC)C(=O)N2CCC[C@H]2C(=O)N[C@@H](C(C)(C)C)C(=O)N[C@@H](CO)C(=O)N[C@H](C(=O)NCCOCCOCC(=O)N[C@@H](CCC(=O)NCCOCCOCC(=O)NCCCCCCCCCCC(=O)O)C(=O)O)CSCC(=O)N[C@@H](Cc2ccccc2)C(=O)N[C@@H](Cc2ccc(O)cc2)C(=O)N[C@@H](CC(=O)O)C1=O` [compound 2235] ({CH2CO}-FYD[NHexGly]YLNRL[Ahp(2)]P[Tle]SC[AEEA][γGlu][AEEA][Aun]-OH; thioether N-14), the IC50 is 15.1 nM. Consider `CCCCCCN1CC(=O)N[C@@H](Cc2ccc(O)cc2)C(=O)N[C@@H](CC(C)C)C(=O)N[C@@H](CC(N)=O)C(=O)N[C@@H](CCCNC(=N)N)C(=O)N[C@@H](CC(C)C)C(=O)N[C@@H](CCCCC)C(=O)N2CCC[C@H]2C(=O)N[C@@H](C(C)(C)C)C(=O)N[C@@H](CC(=O)O)C(=O)N[C@H](C(=O)NCCOCCOCC(=O)N[C@@H](CCC(=O)NCCOCCOCC(=O)NCCCCCCCCCCC(=O)O)C(=O)O)CSCC(=O)N[C@@H](Cc2ccccc2)C(=O)N[C@@H](Cc2c[nH]c3ccccc23)C(=O)N[C@@H](CC(=O)O)C1=O` [compound 2236] ({CH2CO}-FWD[NHexGly]YLNRL[Ahp(2)]P[Tle]DC[AEEA][γGlu][AEEA][Aun]-OH; thioether N-14), for which the IC50 was determined as 23.7 nM. For the compound `CCCCCCN1CC(=O)N[C@@H](Cc2ccc(O)cc2)C(=O)N[C@@H](CCCC)C(=O)N[C@@H](CC(N)=O)C(=O)N[C@@H](CCCNC(=N)N)C(=O)N[C@@H](CC(C)C)C(=O)N[C@@H](CCCCC)C(=O)N2CCC[C@H]2C(=O)N[C@@H](C(C)(C)C)C(=O)N[C@@H](CC(=O)O)C(=O)N[C@H](C(=O)NCCOCCOCC(=O)N[C@@H](CCC(=O)NCCOCCOCC(=O)NCCCCCCCCCCC(=O)O)C(=O)O)CSCC(=O)N[C@@H](Cc2ccccc2)C(=O)N[C@@H](Cc2c[nH]c3ccccc23)C(=O)N[C@@H](CC(=O)O)C1=O` [compound 2237] ({CH2CO}-FWD[NHexGly]Y[Nle]NRL[Ahp(2)]P[Tle]DC[AEEA][γGlu][AEEA][Aun]-OH; thioether N-14), the half-maximal inhibitory concentration (IC50) stood at 36.2 nM. The figure for `CCCCCCN1CC(=O)N[C@@H](Cc2ccc(O)cc2)C(=O)N[C@@H](CCCC)C(=O)N[C@@H](CC(N)=O)C(=O)N[C@@H](CCCNC(=N)N)C(=O)N[C@@H](CC(C)C)C(=O)N[C@@H](CCCCC)C(=O)N2CCC[C@H]2C(=O)N[C@@H](C(C)(C)C)C(=O)N[C@@H](CO)C(=O)N[C@H](C(=O)NCCOCCOCC(=O)N[C@@H](CCC(=O)NCCOCCOCC(=O)NCCCCCCCCCCC(=O)O)C(=O)O)CSCC(=O)N[C@@H](Cc2ccccc2)C(=O)N[C@@H](Cc2ccc(O)cc2)C(=O)N[C@@H](CC(=O)O)C1=O` [compound 2238] ({CH2CO}-FYD[NHexGly]Y[Nle]NRL[Ahp(2)]P[Tle]SC[AEEA][γGlu][AEEA][Aun]-OH; thioether N-14) is 38 nM; for `CCCCCCN1CC(=O)N[C@@H](Cc2ccc(O)cc2)C(=O)N[C@@H](CCCC)C(=O)N[C@@H](CC(N)=O)C(=O)N[C@@H](CCCNC(=N)N)C(=O)N(C)[C@@H](CCCC)C(=O)N[C@@H](CCCCC)C(=O)N2CCC[C@H]2C(=O)N[C@@H](C(C)(C)C)C(=O)N[C@@H](C(C)C)C(=O)N[C@H](C(=O)NCCOCCOCC(=O)N[C@@H](CCC(=O)NCCOCCOCC(=O)NCCCCCCCCCCC(=O)O)C(=O)O)CSCC(=O)N[C@@H](Cc2ccccc2)C(=O)N[C@@H](Cc2c[nH]c3ccccc23)C(=O)N[C@@H](CC(=O)O)C1=O` [compound 2239] ({CH2CO}-FWD[NHexGly]Y[Nle]NR[NMeNle][Ahp(2)]P[Tle]VC[AEEA][γGlu][AEEA][Aun]-OH; thioether N-14) it is 48.6 nM; for `CCCCCCN1CC(=O)N[C@@H](Cc2ccc(O)cc2)C(=O)N[C@@H](CC(C)C)C(=O)N[C@@H](CC(N)=O)C(=O)N[C@@H](CCCNC(=N)N)C(=O)N[C@@H](CC(C)C)C(=O)N[C@@H](CCCCC)C(=O)N2CCC[C@H]2C(=O)N[C@@H](C(C)(C)C)C(=O)N[C@@H](C(C)C)C(=O)N[C@H](C(=O)NCCOCCOCC(=O)N[C@@H](CCC(=O)NCCOCCOCC(=O)NCCCCCCCCCCC(=O)O)C(=O)O)CSCC(=O)N[C@@H](Cc2ccccc2)C(=O)N[C@@H](Cc2ccc(O)cc2)C(=O)N[C@@H](CC(=O)O)C1=O` [compound 2240] ({CH2CO}-FYD[NHexGly]YLNRL[Ahp(2)]P[Tle]VC[AEEA][γGlu][AEEA][Aun]-OH; thioether N-14) it is 24.4 nM.
